Values joined by “and” are separate entries in the source; they are usually repeats but may differ in a detail not shown here. Identical values can stand only once. Inconclusive results and toxic doses are left out.
Test system: P388 leukemia ip, CD2F1 mice, survival T/C
Test: NCI In Vivo Anticancer Drug Screen. Data for tumor model P388 Leukemia (intraperitoneal) in CD2F1 (CDF1) mice
Settings: endpoint: median survival time, higher = longer survival
Outline: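 Mice carrying the transplanted tumor received test compound or vehicle. Survival was recorded in each group, and the value is the treated-group measurement divided by that of the vehicle-treated control group.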

[1] = dose: 60.0 mg/kg/injection, schedule: Q01DX005 (ip), vehicle: saline with Tween-80
[2] = dose: 120.0 mg/kg/injection, schedule: Q01DX005 (ip), vehicle: saline with Tween-80
[3] = dose: 240.0 mg/kg/injection, schedule: Q01DX005 (ip), vehicle: saline with Tween-80
[4] = dose: 60.0 mg/kg/injection, schedule: Q01DX005 (ip), vehicle: Klucel (hydroxypropylcellulose) (HPC)
[5] = dose: 120.0 mg/kg/injection, schedule: Q01DX005 (ip), vehicle: Klucel (hydroxypropylcellulose) (HPC)
[6] = dose: 240.0 mg/kg/injection, schedule: Q01DX005 (ip), vehicle: Klucel (hydroxypropylcellulose) (HPC)
[7] = dose: 50.0 mg/kg/injection, schedule: Q01DX005 (ip), vehicle: Klucel (hydroxypropylcellulose) (HPC)
[8] = dose: 100.0 mg/kg/injection, schedule: Q01DX005 (ip), vehicle: Klucel (hydroxypropylcellulose) (HPC)
[9] = dose: 200.0 mg/kg/injection, schedule: Q01DX005 (ip), vehicle: Klucel (hydroxypropylcellulose) (HPC)
[10] = dose: 25.0 mg/kg/injection, schedule: Q01DX009 (ip), vehicle: saline with Tween-80
[11] = dose: 50.0 mg/kg/injection, schedule: Q01DX009 (ip), vehicle: saline with Tween-80
[12] = dose: 100.0 mg/kg/injection, schedule: Q01DX009 (ip), vehicle: saline with Tween-80
[13] = dose: 50.0 mg/kg/injection, schedule: Q01DX009 (ip), vehicle: saline
[14] = dose: 200.0 mg/kg/injection, schedule: Q01DX009 (ip), vehicle: saline with Tween-80
[15] = dose: 200.0 mg/kg/injection, schedule: Q01DX005 (ip), vehicle: saline with Tween-80

Compound: CC1C2=C(CCCC2=O)O/C1=N\O (configuration not stated)
- T/C (dose: 100.0 mg/kg/injection, schedule: Q04DX003 (ip), vehicle: Klucel (hydroxypropylcellulose) (HPC)): 96 % of control
- T/C (dose: 200.0 mg/kg/injection, schedule: Q04DX003 (ip), vehicle: Klucel (hydroxypropylcellulose) (HPC)): 90 % of control
- T/C (dose: 400.0 mg/kg/injection, schedule: Q04DX003 (ip), vehicle: Klucel (hydroxypropylcellulose) (HPC)): 93 % of control

Compound: COc1ccccc1C(O)c1cnc(C)n1Cc1ccccc1 (configuration not stated)
- T/C [1]: 98 % of control
- T/C [2]: 107 % of control
- T/C [3]: 97 % of control

Compound: CC(C)=CC(C)(O)c1nc2ccccc2s1 (configuration not stated)
- T/C [4]: 95 % of control
- T/C [5]: 93 % of control
- T/C [6]: 96 % of control

Compound: Nc1cc(C(=O)Nc2ccc(C3=NCCN3)cc2)ccc1C(=O)Nc1ccc(C2=NCCN2)cc1
- T/C (dose: 20.0 mg/kg/injection, schedule: Q04DX003 (ip), vehicle: saline with Tween-80): 168 % of control
- T/C (dose: 30.0 mg/kg/injection, schedule: Q04DX003 (ip), vehicle: saline with Tween-80): 204 % of control
- T/C (dose: 44.0 mg/kg/injection, schedule: Q04DX003 (ip), vehicle: saline with Tween-80): 277 % of control
- T/C (dose: 66.0 mg/kg/injection, schedule: Q04DX003 (ip), vehicle: saline with Tween-80): 181 % of control

Compound: O=c1[nH]c(=O)c2nc(-c3cccc([N+](=O)[O-])c3)cnc2[nH]1
- T/C (dose: 100.0 mg/kg/injection, schedule: Q04DX002 (ip), vehicle: saline): 101 % of control
- T/C (dose: 200.0 mg/kg/injection, schedule: Q04DX002 (ip), vehicle: saline): 113 % of control
- T/C (dose: 400.0 mg/kg/injection, schedule: Q04DX002 (ip), vehicle: saline): 106 % of control

Compound: CN(C)C1(C)CCC2C3CCC4=CC(=O)CCC4(C)C3CCC21C (configuration not stated)
- T/C [7]: 97 % of control
- T/C [8]: 97 % of control
- T/C [9]: 100 % of control

Compound: Nc1cc(NC=O)ncn1
- T/C [10]: 102 % of control
- T/C [11]: 105 % of control
- T/C [12]: 102 % of control

Compound: CC(=NCCCCN=C(C)c1cc(C)cc(Br)c1O)c1cc(C)cc(Br)c1O
- T/C (dose: 25.0 mg/kg/injection, schedule: Q01DX005 (ip), vehicle: Klucel (hydroxypropylcellulose) (HPC)): 100 % of control
- T/C [7]: 96 % of control
- T/C [8]: 95 % of control
- T/C [9]: 98 % of control

Compound: CC1(C)C(C(=O)/C=C2\Nc3ccccc3C2(C)C)=Nc2ccccc21
- T/C [4]: 102 % of control
- T/C [5]: 91 % of control
- T/C [6]: 98 % of control

Compound: CCOC(=O)N1NC(=O)CC1(C)C
- T/C (dose: 100.0 mg/kg/injection, schedule: Q01DX001 (ip), vehicle: saline): 95 % of control
- T/C (dose: 200.0 mg/kg/injection, schedule: Q01DX001 (ip), vehicle: saline): 100 % of control
- T/C (dose: 400.0 mg/kg/injection, schedule: Q01DX001 (ip), vehicle: saline): 90 % of control

Compound: O=C(NC(=S)c1ccc(Cl)cc1)Nc1ccccc1
- T/C [10]: 99 % of control
- T/C [11]: 94 % of control
- T/C [12]: 99 % of control

Compound: CCC[N+]1([O-])CCOCC1
- T/C [13]: 102 % of control
- T/C (dose: 100.0 mg/kg/injection, schedule: Q01DX009 (ip), vehicle: saline): 100 % of control
- T/C (dose: 200.0 mg/kg/injection, schedule: Q01DX009 (ip), vehicle: saline): 94 % of control

Compound: CCc1c(N2CCOCC2)c(C#N)c2nc3ccccc3n2c1N1CCOCC1
- T/C [1]: 99 % of control
- T/C [2]: 95 % of control
- T/C [3]: 98 % of control

Compound: NC(=S)N/N=C\c1ncnc2ccccc12
- T/C (dose: 1.0 mg/kg/injection, schedule: Q01DX009 (ip), vehicle: saline with Tween-80): 104 % of control
- T/C (dose: 2.0 mg/kg/injection, schedule: Q01DX009 (ip), vehicle: saline with Tween-80): 118 % of control
- T/C (dose: 4.0 mg/kg/injection, schedule: Q01DX009 (ip), vehicle: saline with Tween-80): 100 % of control
- T/C (dose: 12.0 mg/kg/injection, schedule: Q01DX009 (ip), vehicle: saline with Tween-80): 154 % of control
- T/C (dose: 12.5 mg/kg/injection, schedule: Q01DX009 (ip), vehicle: saline with Tween-80): 150 % of control
- T/C (dose: 12.5 mg/kg/injection, schedule: Q04DX003 (ip), vehicle: saline with Tween-80): 112 % of control
- T/C (dose: 18.0 mg/kg/injection, schedule: Q01DX009 (ip), vehicle: saline with Tween-80): 172 % of control
- T/C (dose: 25.0 mg/kg/injection, schedule: Q04DX003 (ip), vehicle: saline with Tween-80): 116 % of control
- T/C (dose: 50.0 mg/kg/injection, schedule: Q04DX003 (ip), vehicle: saline with Tween-80): 120 % of control

Compound: COc1ccc(CCN(Cc2ccc([N+](=O)[O-])cc2)C(=O)c2ccccc2)c(C=O)c1OC
- T/C (dose: 100.0 mg/kg/injection, schedule: Q01DX001 (ip), vehicle: saline + alcohol): 95 % of control
- T/C (dose: 200.0 mg/kg/injection, schedule: Q01DX001 (ip), vehicle: saline + alcohol): 97 % of control
- T/C (dose: 400.0 mg/kg/injection, schedule: Q01DX001 (ip), vehicle: saline + alcohol): 89 % of control

Compound: O=C1OC(=O)C2CC=CCC12 (configuration not stated)
- T/C [11]: 95 % of control
- T/C [12]: 93 % of control
- T/C [14]: 100 % of control

Compound: CCCCCCCCCCCC(CCCC)CCCCCCCCCC (configuration not stated)
- T/C (dose: 50.0 mg/kg/injection, schedule: Q01DX001 (ip), vehicle: saline sonified): 100 % of control
- T/C (dose: 100.0 mg/kg/injection, schedule: Q01DX001 (ip), vehicle: saline sonified): 104 % of control
- T/C (dose: 200.0 mg/kg/injection, schedule: Q01DX001 (ip), vehicle: saline sonified): 100 % of control

Compound: c1ccc(Cc2cc[n+](Cc3ccccc3)cc2)cc1
- T/C (dose: 12.5 mg/kg/injection, schedule: Q01DX009 (ip), vehicle: saline): 100 % of control
- T/C (dose: 25.0 mg/kg/injection, schedule: Q01DX009 (ip), vehicle: saline): 101 % of control
- T/C [13]: 101 % of control and 89 % of control

Compound: CC1=CN2C(c3ccccc3)=NON(c3ccc(C)cn3)C2C=C1 (configuration not stated)
- T/C [15]: 92 % of control

Compound: CCOc1c(N=Nc2ccccc2C)c(-c2ccccc2)nn1C(N)=S
- T/C (dose: 50.0 mg/kg/injection, schedule: Q01DX005 (ip), vehicle: saline with Tween-80): 90 % of control
- T/C (dose: 100.0 mg/kg/injection, schedule: Q01DX005 (ip), vehicle: saline with Tween-80): 88 % of control
- T/C [15]: 90 % of control

Compound: NC(=O)c1[nH]c(N=Nc2ccc(Cl)cc2)nc1N
- T/C (dose: 50.0 mg/kg/injection, schedule: Q01DX009 (ip), vehicle: Klucel (hydroxypropylcellulose) (HPC)): 92 % of control
- T/C (dose: 100.0 mg/kg/injection, schedule: Q01DX009 (ip), vehicle: Klucel (hydroxypropylcellulose) (HPC)): 100 % of control
- T/C (dose: 200.0 mg/kg/injection, schedule: Q01DX009 (ip), vehicle: Klucel (hydroxypropylcellulose) (HPC)): 89 % of control

Compound: Cc1cn(C2OC(CO)C(O)C2O)c(=O)[nH]c1=O (configuration not stated)
- T/C [12]: 90 % of control
- T/C (dose: 100.0 mg/kg/injection, schedule: Q04DX003 (ip), vehicle: saline with Tween-80): 104 % of control
- T/C [14]: 104 % of control
- T/C (dose: 200.0 mg/kg/injection, schedule: Q04DX003 (ip), vehicle: saline with Tween-80): 104 % of control
- T/C (dose: 400.0 mg/kg/injection, schedule: Q01DX009 (ip), vehicle: saline with Tween-80): 100 % of control
- T/C (dose: 400.0 mg/kg/injection, schedule: Q04DX003 (ip), vehicle: saline with Tween-80): 100 % of control

Compound: Nc1nc2c(c(-c3nc(N)nc4c3Cc3ccccc3-4)n1)Cc1ccccc1-2
- T/C [1]: 98 % of control
- T/C [2]: 100 % of control

Compound: O=C1N(CCN2CCC3(CC2)OCCO3)CCN1c1cc(Cl)cc(Cl)c1
- T/C (dose: 12.5 mg/kg/injection, schedule: Q01DX009 (ip), vehicle: water): 104 % of control and 105 % of control and 113 % of control
- T/C (dose: 25.0 mg/kg/injection, schedule: Q01DX009 (ip), vehicle: water): 105 % of control and 112 % of control and 123 % of control
- T/C (dose: 100.0 mg/kg/injection, schedule: Q01DX009 (ip), vehicle: water): 105 % of control and 110 % of control
- T/C (dose: 200.0 mg/kg/injection, schedule: Q01DX009 (ip), vehicle: water): 108 % of control

Compound: COc1cc2c(cc1Cc1cc(OC)c(OC)c(OC)c1)OCO2
- T/C [4]: 98 % of control
- T/C [5]: 100 % of control
- T/C [6]: 98 % of control

Compound: CCC1(CC)COC(C)(C(=O)O)OC1
- T/C [10]: 102 % of control
- T/C [11]: 102 % of control
- T/C [12]: 94 % of control
- T/C [14]: 96 % of control

Compound: O=C(SCc1ccccc1)c1cccnc1
- T/C [10]: 105 % of control
- T/C [11]: 110 % of control
- T/C [12]: 100 % of control

Compound: COc1ccc(C(c2cc3c(cc2O)OCO3)N2CCOCC2)cc1OC (configuration not stated)
- T/C [1]: 101 % of control
- T/C [2]: 109 % of control
- T/C [3]: 111 % of control

Compound: COC1=CC=C2CC(=C1)CCC1C2CCC2(C)C(=O)CCC12 (configuration not stated)
- T/C [7]: 100 % of control
- T/C [8]: 96 % of control
- T/C [9]: 91 % of control

Reference: PubChem BioAssay AID330 (DTP/NCI, 2004)
